One assay has as its system BR or C2 cells. In words: Proliferation of BR or C2 cells (cell lines not separated). Type of assay: cell-based, canine. As to the method: (§1) Cell lines: BR and C2 canine mastocytoma cells lines were obtained from Dr. George Caughey (University of California at San Francisco, San Francisco, Calif.). Both cell lines were maintained in DMEM supplemented with 2% bovine calf, 1 mM L-glutamine, 12.5 mM HEPES (pH 7.5), 0.25 mg/mL Histidine, 1% Penicillin-Streptomycin and 1% fungizone. The BR and C2 cells were derived from canine mast cell tumors and were originally established in long-term culture after initial passaging in immunodeficient mice (DeVinney et al., Am. J. Respir. Cell Mol. Biol., Vol. 3, No. 5, pp. 413-420 (1990); Lazarus et al., Am. J. Physiol., Vol. 251, No. 6, Pt 1, pp. C935-C944 (1986)). The BR cell line has a point mutation (T1752C) resulting in a Leucine to Proline substitution at amino acid 575 (juxtamembrane domain). The C2 cell line has an internal tandem duplication (ITD) of the KIT juxtamembrane region.

In assay [1] the test system is cutaneous mast cell tumors. In words: Prospective case series of pet dogs with measurable cutaneous mast cell tumors. Type of assay: in vivo, dog. Conditions: 25 mg/kg PO QD x 60 days of SALT I. As to the method:
The study patients are pet dogs with measurable and histologically-confirmed mast cell tumors. Cases are limited to those with measurable lesions amenable to biopsy.
Pretreatment evaluation of all cases include physical examination, complete blood count, buffy coat, serum biochemistry, urinalysis, serum bile acids (fasting and post-prandial), documentation of regional lymph node size, abdominal radiographs and abdominal ultrasound. The treatment regimen is 25 mg/kg PO QD×60 days of SALT I.
Treatment is continued in all cases for 60 days unless disease progression is noted. In cases experiencing partial response or complete response ongoing therapy for an additional 60 days may be considered. Cases successfully completing therapy are eligible for repeat entry to study.
The efficacy of COMPOUND I is assessed against measurable cutaneous mast cell tumors, using clinical endpoints. Biological endpoints may be taken from serial biopsies collected from cutaneous tumors and from blood samples available through the treatment course.
Clinical endpoints include response rate of measurable tumors, objective response against measurable tumor, and time to progression of measurable tumor. All adverse side effects will be recorded.
Furthermore, it may be observed that more animals obtaining treatment show Stable Disease (SD), while less treated animals show Progressive Disease (PD). […]

In assay [2] the test system is constitutively activated mutant canine KIT (BR and C2 cells). In words: KIT autophosphorylation in BR and C2 cell lysates (anti-P-Tyr Western immunoblot). Type of assay: cell-based.
Excerpt: Antibodies: A polyclonal rabbit anti-KIT antibody (c-kit Ab-1) was used at a dilution of 1:500 (c-kit Ab-1; Oncogene, Cambridge, Mass.). An anti-phosphotyrosine antibody (PY20) was used at a dilution of 1:1000 (PY20 Transduction Laboratories; Lexington, Ky.). Peroxidase conjugated goat anti-mouse antibody was used at a dilution of 1:5000 and goat anti-rabbit antibody at a dilution of 1:10,000 (Pierce; Rockford, Ill.).
as §1
Protein lysates: BR and C2 cells were washed ×2 in PBS and then quiesced in Optimem (Gibco-BRL) at 37° C. for approximately 18 hours.
Dermatol., Vol.114, No. 2, pp. 392-394 (2000)).

The values below come from patent US20030191131A1, “Use of organic compounds” (priority 2002, published 2003).

With `Cc1ccc(NC(=O)c2ccc(CN3CCN(C)CC3)cc2)cc1Nc1nccc(-c2cccnc2)n1` [COMPOUND I], the Inhibition of proliferation result with BR or C2 cells (0.001-0.01 μM, 48-72 hours) is “Partial inhibition”. Also, the “Morphologic observations of inhibitor treated cells” value with BR or C2 cells (data not shown) is on record as “changes consistent with apoptosis”. In assay [1], the “Objective Tumors Responses” value is on record as “are observed”. Also, the “Inhibition of KIT autophosphorylation” value in assay [2] (0.1 μM dose, BR or C2 cells) is recorded as “Near complete inhibition”; in assay [2] (10 and 1.0 μM doses, BR or C2 cells, 90 minutes incubation, no SLF), “complete inhibition”. Moreover, the Autophosphorylation of c-kit entry in assay [2] (0.001-0.01 μM doses, BR or C2 cells) is given as “Limited autophosphorylation”. Besides, in assay [2] (BR and C2 cells against literature wild type value), the “Potency on mutated c-kit receptor compared with wild type c-kit receptor” value is reported as “more potent inhibitor of this mutated receptor than it is of the wild type c-kit receptor”. The “Expression of c-kit protein (membrane reprobed with anti-c-kit antibody)” value in assay [2] (treated BR or C2 cells) is “no change in expression of c-kit protein”.
